Test results as given in US11459323B2, “Monocyclic β-lactam compound for treating bacterial infection” (MEDSHINE DISCOVERY INC., priority 2018, dated 2022).
≈ marks a conversion by molar mass, not a printed value.

Assays:
Experiment in all cases: MIC on clinically isolated bacteria
Assay type in all cases: cell-based
[1] = system: Acinetobacter baumannii C270; conditions: Acinetobacter baumannii C270; read-out: Minimum Inhibitory Concentration (MIC)
Excerpt: (§1) Twenty-five strains of clinically isolated Acinetobacter baumannii and twenty-seven strains of Pseudomonas aeruginosa were respectively selected and used to determine the minimum inhibitory concentration (MIC) of the compounds by micro-liquid dilution method according to the Institute of Clinical and Laboratory Standard (CLSI) requirements.

[2] = system: Pseudomonas aeruginosa M1; conditions: read-out: MIC
Excerpt: as §1

[3] = system: Acinetobacter baumannii C402; conditions: Acinetobacter baumannii C402; read-out: Minimum Inhibitory Concentration (MIC)
Excerpt: as §1

[4] = system: Pseudomonas aeruginosa W35; conditions: read-out: MIC
Excerpt: as §1

[5] = system: Acinetobacter baumannii C395; conditions: Acinetobacter baumannii C395; read-out: Minimum Inhibitory Concentration (MIC)
Excerpt: as §1

[6] = system: Pseudomonas aeruginosa W21; conditions: read-out: MIC
Excerpt: as §1

[7] = system: Pseudomonas aeruginosa W9; conditions: read-out: MIC
Excerpt: as §1

[8] = system: Acinetobacter baumannii C427; conditions: Acinetobacter baumannii C427; read-out: Minimum Inhibitory Concentration (MIC)
Excerpt: as §1

[9] = system: Pseudomonas aeruginosa W6; conditions: read-out: MIC
Excerpt: as §1

[10] = system: Acinetobacter baumannii C251; conditions: Acinetobacter baumannii C251; read-out: Minimum Inhibitory Concentration (MIC)
Excerpt: as §1

[11] = system: Acinetobacter baumannii C312; conditions: Acinetobacter baumannii C312; read-out: Minimum Inhibitory Concentration (MIC)
Excerpt: as §1

[12] = system: Pseudomonas aeruginosa C763; conditions: read-out: MIC
Excerpt: as §1

[13] = system: Pseudomonas aeruginosa C754; conditions: read-out: MIC
Excerpt: as §1

[14] = system: Acinetobacter baumannii C319; conditions: Acinetobacter baumannii C319; read-out: Minimum Inhibitory Concentration (MIC)
Excerpt: as §1

[15] = system: Acinetobacter baumannii C332; conditions: Acinetobacter baumannii C332; read-out: Minimum Inhibitory Concentration (MIC)
Excerpt: as §1

[16] = system: Acinetobacter baumannii C394; conditions: Acinetobacter baumannii C394; read-out: Minimum Inhibitory Concentration (MIC)
Excerpt: as §1

[17] = system: Acinetobacter baumannii C241; conditions: Acinetobacter baumannii C241; read-out: Minimum Inhibitory Concentration (MIC)
Excerpt: as §1

[18] = system: Pseudomonas aeruginosa W42; conditions: read-out: MIC
Excerpt: as §1

[19] = system: Acinetobacter baumannii C283; conditions: Acinetobacter baumannii C283; read-out: Minimum Inhibitory Concentration (MIC)
Excerpt: as §1

[20] = system: Acinetobacter baumannii C279; conditions: Acinetobacter baumannii C279; read-out: Minimum Inhibitory Concentration (MIC)
Excerpt: as §1

[21] = system: Acinetobacter baumannii C328; conditions: Acinetobacter baumannii C328; read-out: Minimum Inhibitory Concentration (MIC)
Excerpt: as §1

[22] = system: Acinetobacter baumannii C403; conditions: Acinetobacter baumannii C403; read-out: Minimum Inhibitory Concentration (MIC)
Excerpt: as §1

[23] = system: Acinetobacter baumannii C330; conditions: Acinetobacter baumannii C330; read-out: Minimum Inhibitory Concentration (MIC)
Excerpt: as §1

[24] = system: Pseudomonas aeruginosa W13; conditions: read-out: MIC
Excerpt: as §1

[25] = system: Acinetobacter baumannii C401; conditions: Acinetobacter baumannii C401; read-out: Minimum Inhibitory Concentration (MIC)
Excerpt: as §1

[26] = system: Pseudomonas aeruginosa W1; conditions: read-out: MIC
Excerpt: as §1

[27] = system: Pseudomonas aeruginosa C762; conditions: read-out: MIC
Excerpt: as §1

[28] = system: Pseudomonas aeruginosa W24; conditions: read-out: MIC
Excerpt: as §1

[29] = system: Pseudomonas aeruginosa W19; conditions: read-out: MIC
Excerpt: as §1

[30] = system: Acinetobacter baumannii C361; conditions: Acinetobacter baumannii C361; read-out: Minimum Inhibitory Concentration (MIC)
Excerpt: as §1

[31] = system: Pseudomonas aeruginosa W46; conditions: read-out: MIC
Excerpt: as §1

[32] = system: Pseudomonas aeruginosa W28; conditions: read-out: MIC
Excerpt: as §1

[33] = system: Pseudomonas aeruginosa C755; conditions: read-out: MIC
Excerpt: as §1

[34] = system: Pseudomonas aeruginosa C761; conditions: read-out: MIC
Excerpt: as §1

[35] = system: Acinetobacter baumannii C313; conditions: Acinetobacter baumannii C313; read-out: Minimum Inhibitory Concentration (MIC)
Excerpt: as §1

[36] = system: Acinetobacter baumannii C333; conditions: Acinetobacter baumannii C333; read-out: Minimum Inhibitory Concentration (MIC)
Excerpt: as §1

[37] = system: Acinetobacter baumannii C315; conditions: Acinetobacter baumannii C315; read-out: Minimum Inhibitory Concentration (MIC)
Excerpt: as §1

[38] = system: Acinetobacter baumannii C390; conditions: Acinetobacter baumannii C390; read-out: Minimum Inhibitory Concentration (MIC)
Excerpt: as §1

[39] = system: Pseudomonas aeruginosa W4; conditions: read-out: MIC
Excerpt: as §1

[40] = system: Pseudomonas aeruginosa W27; conditions: read-out: MIC
Excerpt: as §1

Row | MIC [1] | MIC [2] | MIC [3] | MIC [4] | MIC [5] | MIC [6] | MIC [7] | MIC [8] | MIC [9] | MIC [10] | MIC [11] | MIC [12] | MIC [13] | MIC [14] | MIC [15] | MIC [16] | MIC [17] | MIC [18] | MIC [19] | MIC [20] | Structure (SMILES) | further results
1 | 4 mg/L (≈ 5.04 µM) | 1 mg/L (≈ 1.26 µM) | 4 mg/L (≈ 5.04 µM) | 0.25 mg/L (≈ 0.315 µM) | 4 mg/L (≈ 5.04 µM) | 0.25 mg/L (≈ 0.315 µM) | 1 mg/L (≈ 1.26 µM) | 4 mg/L (≈ 5.04 µM) | 1 mg/L (≈ 1.26 µM) | > 16 mg/L | 4 mg/L (≈ 5.04 µM) | 4 mg/L (≈ 5.04 µM) | 0.5 mg/L (≈ 0.631 µM) | 4 mg/L (≈ 5.04 µM) | 4 mg/L (≈ 5.04 µM) | 4 mg/L (≈ 5.04 µM) | 4 mg/L (≈ 5.04 µM) | 0.5 mg/L (≈ 0.631 µM) | 4 mg/L (≈ 5.04 µM) | 4 mg/L (≈ 5.04 µM) | CC1(C)[C@H](NC(=O)/C(=N\O[C@@H](COc2ccc3c(c2)CN(/C(=N\[C@@H]2CCCNC2)N[C@@H]2CCCNC2)C3)C(=O)O)c2csc(N)n2)C(=O)N1OS(=O)(=O)O [Compound 46] | MIC [21]: 4 mg/L (≈ 5.04 µM); MIC [22]: 4 mg/L (≈ 5.04 µM); MIC [23]: 4 mg/L (≈ 5.04 µM); MIC [24]: 0.25 mg/L (≈ 0.315 µM); MIC [25]: 4 mg/L (≈ 5.04 µM); MIC [26]: 1 mg/L (≈ 1.26 µM); MIC [27]: 8 mg/L (≈ 10.1 µM); MIC [28]: 1 mg/L (≈ 1.26 µM); MIC [29]: 0.5 mg/L (≈ 0.631 µM); MIC [30]: 4 mg/L (≈ 5.04 µM); MIC [31]: 0.5 mg/L (≈ 0.631 µM); MIC [32]: 4 mg/L (≈ 5.04 µM); MIC [33]: 0.5 mg/L (≈ 0.631 µM); MIC [34]: 0.25 mg/L (≈ 0.315 µM); MIC [35]: 4 mg/L (≈ 5.04 µM); MIC [36]: 4 mg/L (≈ 5.04 µM); MIC [37]: 4 mg/L (≈ 5.04 µM); MIC [38]: 4 mg/L (≈ 5.04 µM); MIC [39]: 1 mg/L (≈ 1.26 µM); MIC [40]: 1 mg/L (≈ 1.26 µM)
2 | 1 mg/L (≈ 1.49 µM) | 0.5 mg/L (≈ 0.747 µM) | 1 mg/L (≈ 1.49 µM) | 0.25 mg/L (≈ 0.373 µM) | 1 mg/L (≈ 1.49 µM) | 0.5 mg/L (≈ 0.747 µM) | 4 mg/L (≈ 5.97 µM) | 2 mg/L (≈ 2.99 µM) | 4 mg/L (≈ 5.97 µM) | 4 mg/L (≈ 5.97 µM) | 1 mg/L (≈ 1.49 µM) | 2 mg/L (≈ 2.99 µM) | 0.5 mg/L (≈ 0.747 µM) | 1 mg/L (≈ 1.49 µM) | 1 mg/L (≈ 1.49 µM) | 1 mg/L (≈ 1.49 µM) | 2 mg/L (≈ 2.99 µM) | 0.5 mg/L (≈ 0.747 µM) | 1 mg/L (≈ 1.49 µM) | 1 mg/L (≈ 1.49 µM) | CC1(C)[C@H](NC(=O)/C(=N\O[C@@H](COc2ccc3c(c2)CN(C(=N)NCCN)C3)C(=O)O)c2csc(N)n2)C(=O)N1OS(=O)(=O)O [Compound 44] | MIC [21]: 1 mg/L (≈ 1.49 µM); MIC [22]: 2 mg/L (≈ 2.99 µM); MIC [23]: 1 mg/L (≈ 1.49 µM); MIC [24]: 0.5 mg/L (≈ 0.747 µM); MIC [25]: 1 mg/L (≈ 1.49 µM); MIC [26]: 2 mg/L (≈ 2.99 µM); MIC [27]: 4 mg/L (≈ 5.97 µM); MIC [28]: 2 mg/L (≈ 2.99 µM); MIC [29]: 1 mg/L (≈ 1.49 µM); MIC [30]: 1 mg/L (≈ 1.49 µM); MIC [31]: 1 mg/L (≈ 1.49 µM); MIC [32]: 4 mg/L (≈ 5.97 µM); MIC [33]: 0.5 mg/L (≈ 0.747 µM); MIC [34]: 1 mg/L (≈ 1.49 µM); MIC [35]: 1 mg/L (≈ 1.49 µM); MIC [36]: 2 mg/L (≈ 2.99 µM); MIC [37]: 1 mg/L (≈ 1.49 µM); MIC [38]: 1 mg/L (≈ 1.49 µM); MIC [39]: 0.5 mg/L (≈ 0.747 µM); MIC [40]: 4 mg/L (≈ 5.97 µM)
